Assay results: US7495027B2, “3-aryl-4-hydroxyfuranone compounds and the human and animal health use thereof” (Wyeth, priority 2003, dated 2009)
≈ marks a conversion by molar mass, not a printed value. Read-outs that look alike come from different tables or passages of the source.

What was measured:
[1] = biological target: T1, S. aureus Uridine-diphosphate-N-acetvimuramoyl: L-alanine lipase, MurC (Staphylococcus aureus, UniProt Q2FXJ0); assay: biochemical; details: (S) S. aureus enzyme; for IC50: read-out: MurC IC50 (converted)
T1 sequence (Q2FXJ0 1-437): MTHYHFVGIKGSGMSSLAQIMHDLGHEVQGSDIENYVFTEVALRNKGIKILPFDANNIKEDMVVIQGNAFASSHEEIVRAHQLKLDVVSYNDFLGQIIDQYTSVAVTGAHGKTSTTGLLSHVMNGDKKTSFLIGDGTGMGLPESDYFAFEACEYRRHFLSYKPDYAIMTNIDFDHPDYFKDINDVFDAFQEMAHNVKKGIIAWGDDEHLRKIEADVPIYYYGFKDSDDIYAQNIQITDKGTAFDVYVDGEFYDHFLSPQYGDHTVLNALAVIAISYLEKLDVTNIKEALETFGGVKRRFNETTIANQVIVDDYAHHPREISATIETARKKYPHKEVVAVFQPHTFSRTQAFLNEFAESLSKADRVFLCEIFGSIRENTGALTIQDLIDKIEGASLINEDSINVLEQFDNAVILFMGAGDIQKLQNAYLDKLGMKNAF
Experimental: S. aureus and E. coli Uridine-diphosphate-N-acetvimuramoyl: L-alanine lipase, MurC
Preparation of Enzyme Solution:
A 1 mg/mL stock solution of MurC is prepared in a buffer consisting of 20 mM Tris/HCl (pH 8.5) with 2.5 μM BME. The stock solution is further diluted with the buffer to give a final enzyme concentration of 100 μg/mL for the E. coli stock solution and 70 μg/mL for the S. aureus stock solution.
Preparation of Test Compound Solutions:
All test solutions are prepared in DMSO as 10 mg/mL, then diluted with 50 mM Tris/HCl (pH 8.5) to 100 μg/mL.
Preparation of Stop Solution:
The stop solution is prepared by stirring 1 part 4.2% ammonium molydbate in 4N HCl with 2 parts 0.045% malachite green for 30 min.
In this evaluation, the inhibitory activity of a test compound against MurC, the enzyme which catalyzes the third step of bacterial cell wall bioxynthesis is determined. Experiments are performed by adding 2.5 μl buffer, 2.5 μl 0.5M NH4SO2, 5 μl 2 μM L-Ala, 5 μl enzyme solution and 6.5 μl test compound solution to each well in a 96-well microplate. After a pre-incubation period of 10 mins. at 23° C., 3.75 μl of a 0.75 μM solution of UDP-MurNac is added to each well. Following an incubation period of 10 mins. at 37° C., 210 μl stop solution and 50 μl of a 34% w/v sodium citrate solution are added and color is allowed to develop for 10 mins. at 23° C. (Lanzetta et al., Analytical Biochemistry, 1979, 95) Optical density readings are taken at 660 nm using a Molecular Devices Spectra Max 250 with Soft Max software. Controls are performed using the same procedure and omitting the addition of UDP-MurNac. […]
Using these values the IC50 is determined by linear regression analysis.

enterococci = assay: Minimum inhibitory concentration, microdilution broth method, enterococci; type: cell-based; details: Mueller-Hinton broth, 18-22 hours at 35° C.; for MIC: Enterococcus faecalis
How it was run: (§1)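 Broth microdilution per NCCLS M7-A5 (2000). Staphylococci and enterococci grown in Mueller-Hinton broth; streptococci in Mueller-Hinton broth with 5% horse blood (LHB). Panel includes recent clinical isolates resistant to methicillin, penicillin and/or vancomycin.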

staphylococci = assay: Minimum inhibitory concentration, microdilution broth method, staphylococci; type: cell-based; details: Mueller-Hinton broth, 18-22 hours at 35° C.; for MIC: Staphylococcus aureus
How it was run: as §1

[2] = biological target: E. coli Enopyruvyl-UPD-N-acetylglucosamine reductase, Mur B (Escherichia coli, UniProt P08373); assay: biochemical; details: (E) E. coli enzyme; for IC50: read-out: MurB IC50 (converted)
Sequence of E. coli Enopyruvyl-UPD-N-acetylglucosamine reductase, Mur B (P08373 whole entry): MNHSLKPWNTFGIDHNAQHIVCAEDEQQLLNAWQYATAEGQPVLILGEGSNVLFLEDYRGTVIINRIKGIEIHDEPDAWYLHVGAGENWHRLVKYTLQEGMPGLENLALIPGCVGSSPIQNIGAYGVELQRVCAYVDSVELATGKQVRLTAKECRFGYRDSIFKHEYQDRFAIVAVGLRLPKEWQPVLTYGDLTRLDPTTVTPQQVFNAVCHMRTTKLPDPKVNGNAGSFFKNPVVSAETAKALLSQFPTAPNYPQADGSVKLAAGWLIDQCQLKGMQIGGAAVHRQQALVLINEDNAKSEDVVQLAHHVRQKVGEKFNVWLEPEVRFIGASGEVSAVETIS

[3] = biological target: T2, S. aureus Enopyruvyl-UPD-N-acetylglucosamine reductase, Mur B (Staphylococcus aureus, UniProt P61431); assay: biochemical; details: (S) S. aureus enzyme; read-out: MurB IC50 (converted)
T2 sequence (P61431 1-307): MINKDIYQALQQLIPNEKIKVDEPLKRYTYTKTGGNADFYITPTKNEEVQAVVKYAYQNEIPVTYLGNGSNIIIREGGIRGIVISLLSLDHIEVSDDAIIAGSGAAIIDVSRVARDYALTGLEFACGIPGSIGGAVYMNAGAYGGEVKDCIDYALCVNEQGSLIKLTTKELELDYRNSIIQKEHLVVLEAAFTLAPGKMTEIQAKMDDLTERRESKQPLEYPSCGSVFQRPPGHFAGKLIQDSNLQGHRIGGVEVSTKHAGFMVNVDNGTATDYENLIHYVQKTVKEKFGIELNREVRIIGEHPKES

[4] = E. faecalis GC 2242, read-out: MIC E. faecalis GC 2242
[5] = E. faecalis GC 4555, read-out: MIC E. faecalis GC 4555
[6] = S. aureus GC 1131, read-out: MIC S. aureus GC 1131
[7] = S. aureus GC 4543, read-out: MIC S. aureus GC 4543

SMILES | IC50 [1] [µM] | MIC (enterococci; [4]) [µg/mL] | MIC (enterococci; [5]) [µg/mL] | MIC (staphylococci; [6]) [µg/mL] | MIC (staphylococci; [7]) [µg/mL] | IC50 [2] [µM] | MurC IC50 [1] [µg/mL] | MIC E. faecalis GC 2242 (enterococci; E. faecalis GC 2242) [µg/mL] | MIC E. faecalis GC 4555 (enterococci; E. faecalis GC 4555) [µg/mL] | MIC S. aureus GC 1131 (staphylococci; S. aureus GC 1131) [µg/mL] | MIC S. aureus GC 4543 (staphylococci; S. aureus GC 4543) [µg/mL] | MurB IC50 [2] | IC50 [3] [µM]
O=C1O/C(=C\c2ccc(-c3ccccc3)cc2)C(O)=C1c1ccc(Cl)cc1 [Example 53] | 18.7 | 4 (≈ 10.7 µM) | 8 (≈ 21.3 µM) | 16 (≈ 42.7 µM) | 16 (≈ 42.7 µM) | 16 | – | – | – | – | – | – | –
O=C1O/C(=C\c2ccc(-c3ccccc3)cc2)C(O)=C1c1cccc(C(F)(F)F)c1 [Example 10] | 17.1 | 1 (≈ 2.45 µM) | 8 (≈ 19.6 µM) | 4 (≈ 9.79 µM) | 2 (≈ 4.9 µM) | 14.7 | – | – | – | – | – | – | –
O=C1O/C(=C\C2CCCCC2)C(O)=C1c1ccc2ccccc2c1 [Example 51] | 62.4 | 8 (≈ 25 µM) | 32 (≈ 99.9 µM) | > 128 | 16 (≈ 49.9 µM) | > 78 | – | – | – | – | – | – | –
Cc1ccc(C=C2OC(=O)C(c3ccc(Cl)cc3)=C2O)s1 [Example 14] | – | – | – | – | – | – | 22 | 64 (≈ 201 µM) | 4 (≈ 12.5 µM) | >128 | >128 | >25 (E) μg/mL | –
O=C1O/C(=C\c2ccc(-c3cc(Cl)cc(Cl)c3)cc2)C(O)=C1c1cc(Cl)cc(Cl)c1 | 48.1 | 0.5 (≈ 1.05 µM) | 1 (≈ 2.09 µM) | 4 (≈ 8.37 µM) | 0.5 (≈ 1.05 µM) | – | – | – | – | – | – | 3 (E) μg/mL | –
O=C1O/C(=C\C2CCCCC2)C(O)=C1c1ccc(Cl)cc1 [Example 15] | > 82 | 32 (≈ 105 µM) | 64 (≈ 210 µM) | 64 (≈ 210 µM) | 64 (≈ 210 µM) | > 82 | – | – | – | – | – | – | –
O=C1O/C(=C\c2ccc(-c3ccc(Cl)cc3)cc2)C(O)=C1c1ccc(Cl)cc1 [R=H, R1=4-Cl—C6H4, R2=4-(4′-Cl-biphenyl)] | – | 2 (≈ 4.89 µM) | 8 (≈ 19.5 µM) | 16 (≈ 39.1 µM) | 8 (≈ 19.5 µM) | 7.33 | – | – | – | – | – | – | –
O=C1O/C(=C\c2ccc(-c3cccc(C(F)(F)F)c3)cc2)C(O)=C1c1cccc(C(F)(F)F)c1 | – | – | – | – | – | – | 22 | 1 (≈ 2.1 µM) | 4 (≈ 8.4 µM) | 4 (≈ 8.4 µM) | 1 (≈ 2.1 µM) | 4 (E) μg/mL | –
O=C1O/C(=C\C2CCCCC2)C(O)=C1c1cccc(C(F)(F)F)c1 [Example 17] | > 73.9 | 32 (≈ 94.6 µM) | 64 (≈ 189 µM) | 32 (≈ 94.6 µM) | > 128 | > 70.9 | – | – | – | – | – | – | –
O=C1O/C(=C\c2ccc(C(F)(F)F)cc2)C(O)=C1c1ccc(-c2ccccc2)cc1 [R=H, R1=4-(biphenyl), R2=4-CF3—C6H4] | 29.4 | 2 (≈ 4.9 µM) | 8 (≈ 19.6 µM) | 8 (≈ 19.6 µM) | 8 (≈ 19.6 µM) | 14.7 | – | – | – | – | – | – | –
O=C1O/C(=C\c2ccc(-c3ccccc3)cc2)C(O)=C1c1cc(Cl)cc(Cl)c1 [Example 67] | 44 | 0.5 (≈ 1.22 µM) | 2 (≈ 4.89 µM) | 1 (≈ 2.44 µM) | – | 2.44 | – | – | – | – | 0.5 (≈ 1.22 µM) | – | –
O=C1O/C(=C\c2ccc(N3CCOCC3)c3ccccc23)C(O)=C1c1cc(Cl)cc(Cl)c1 [Example 38] | 14.9 | 16 (≈ 34.2 µM) | 32 (≈ 68.3 µM) | 8 (≈ 17.1 µM) | 8 (≈ 17.1 µM) | – | – | – | – | – | – | – | 17.1
O=C1O/C(=C\c2ccc3ccccc3c2)C(O)=C1c1ccc2ccccc2c1 [Example 52] | > 68.6 | 4 (≈ 11 µM) | 8 (≈ 22 µM) | 16 (≈ 43.9 µM) | 16 (≈ 43.9 µM) | > 68.6 | – | – | – | – | – | – | –
O=C1O/C(=C\c2ccc3ccccc3c2)C(O)=C1c1cccc2ccccc12 [Example 56] | 30.2 | 8 (≈ 22 µM) | 32 (≈ 87.8 µM) | 16 (≈ 43.9 µM) | 32 (≈ 87.8 µM) | > 68.6 | – | – | – | – | – | – | –
O=C1O/C(=C\c2cccc3ccccc23)C(O)=C1c1cccc2ccccc12 [Example 47] | – | 32 (≈ 87.8 µM) | 64 (≈ 176 µM) | 16 (≈ 43.9 µM) | 32 (≈ 87.8 µM) | 63.1 | – | – | – | – | – | – | 27.4
O=C1O/C(=C\c2ccc3ccccc3c2)C(O)=C1c1ccc(Cl)cc1 [Example 54] | 31.5 | 4 (≈ 11.5 µM) | 32 (≈ 91.7 µM) | 8 (≈ 22.9 µM) | 16 (≈ 45.9 µM) | 22.9 | – | – | – | – | – | – | –
O=C1O/C(=C\c2ccc(-c3ccccc3)cc2)C(O)=C1c1cccc(Cl)c1 [Example 69] | 13.3 | 0.5 (≈ 1.33 µM) | 0.5 (≈ 1.33 µM) | 2 (≈ 5.34 µM) | 1 (≈ 2.67 µM) | 13.3 | – | – | – | – | – | – | –
Cc1ccc(C=C2OC(=O)C(c3ccc(Cl)cc3)=C2O)s1 (mixture of isomers) [Example 13] | – | – | – | – | – | – | 15 | >128 | >128 | 64 | >128 | 12 (E) μg/mL | –
O=C1O/C(=C\c2cccc(C(F)(F)F)c2)C(O)=C1c1ccc2ccccc2c1 [Example 42] | 47.1 | 8 (≈ 20.9 µM) | 32 (≈ 83.7 µM) | 8 (≈ 20.9 µM) | 8 (≈ 20.9 µM) | – | – | – | – | – | – | 10 (E) μg/mL | –
O=C1OC(=Cc2ccc(-c3ccccc3)cc2)C(O)=C1c1cccc(C(F)(F)F)c1 (mixture of isomers) [Example 11] | – | – | – | – | – | – | 5 | 1 | 8 | 4 | 2 | 6 (E) μg/mL | –
O=C1OC(=CC2CCCCC2)C(O)=C1c1cccc(C(F)(F)F)c1 [Example 16] | – | – | – | – | – | – | 22 | 64 (≈ 189 µM) | 64 (≈ 189 µM) | 64 (≈ 189 µM) | >128 | >25 (E) μg/mL | –
O=C1O/C(=C\C2CCCCC2)C(O)=C1c1ccc(-c2ccccc2)cc1 [Example 100] | 46.2 | > 128 | > 128 | > 128 | > 128 | – | – | – | – | – | – | – | –
O=C1O/C(=C\c2cccc(C(F)(F)F)c2)C(O)=C1c1ccc(-c2ccccc2)c(F)c1 [Example 106] | 28.1 | 0.25 (≈ 0.586 µM) | 1 (≈ 2.35 µM) | 2 (≈ 4.69 µM) | 2 (≈ 4.69 µM) | – | – | – | – | – | – | 12 (E) μg/mL | –
Cc1ccc(/C=C2\OC(=O)C(c3ccc(-c4ccccc4)cc3)=C2O)s1 [Example 104] | 52.7 | 32 (≈ 88.8 µM) | 64 (≈ 178 µM) | 16 (≈ 44.4 µM) | 32 (≈ 88.8 µM) | – | – | – | – | – | – | – | –
O=C1O/C(=C\c2cccnc2)C(O)=C1c1ccc(-c2ccccc2)cc1 [Example 101] | 67.4 | 64 (≈ 187 µM) | > 128 | > 128 | > 128 | > 73.2 | – | – | – | – | – | – | –
